Data as given in patent US9315522B2, “Antibacterial compounds” (JANSSEN SCIENCES IRELAND UC, priority 2012, dated 2016).
Converted amounts (≈) assume the structure as drawn.

system: Staphylococcus aureus ATCC 29213; assay: Antibacterial susceptibility testing, IC90 determination (STA); type: cell-based; details: Staphylococcus aureus, ATCC29213, Staphylococcus aureus ATCC 29213, broth microdilution, resazurin; read-out: STA (361.159) IC90
Description: (§1) The following bacteria were used: Staphylococcus aureus ATCC 29213, methicillin-resistant Staphylococcus aureus (MRSA) ATCC 700788 and Escherichia coli ATCC 35218. The bacteria used in this study were grown overnight in flasks containing 100 ml Mueller-Hinton broth (Difco cat. nr. 0757-17) in sterile de-ionized water, with shaking, at 37° C. Stocks were store at −70° C. until use.
(§2) Bacteria were incubated on a tryptic soy agar plate containing 5% sheep blood (Becton Dickinson cat. nr. 254053) for 18-24 hours at 35° C. in aerobic conditions (first passage). For the second passage, fresh Mueller-Hinton broth is inoculated with 5-10 colonies and grown overnight at 35° C. until turbidity (reaching log-phase) in aerobic conditions is reached. The bacterial suspension is then adjusted to 0.5 McFarland density and further diluted 1:100 in Mueller Hinton broth medium. This is used as inoculum.
The result(s) are depicted the table below (for STA ATCC 29213).
(§3) MIC assays were performed by the broth microdilution method in a 96-well format (flat-bottom microtitre plates) with a final volume of 0.1 ml Mueller Hinton broth containing two-fold serial dilutions of compounds and inoculated with 5×10^5 CFU/ml of bacteria (standard inoculum size according to CLSI guidelines). Inhibitors are typically varied over the range of 63 to 0.49 μM. The final DMSO concentration in the assay was 1.25% (maximum tolerable DMSO concentration=6%). In the assays where the effect of human serum on the activity of the compounds against S. aureus was tested, human serum was added at a final concentration of 10%. The plates were incubated at 35° C. for 16-20 hours. At the end of incubation the bacterial growth was quantified fluorometrically. For this, resazurin was added to all wells and the plates were re-incubated. The incubation time is dependent on the type of bacteria. A change in color from blue to pink indicated the growth of bacteria. The fluorescence was read in computer-controlled fluorometer (Fluoroskan Ascent FL, Labsystems) at an excitation wavelength 540 nm and an emission wavelength of 590 nm. The % growth inhibition achieved by the compounds was calculated according to standard methods. The IC90 (expressed in μg/ml) was defined as the 90% inhibitory concentration for bacterial growth. A panel of reference compounds were simultaneously tested for QC approval.

| SMILES | IC90 [µg/mL] |
| --- | --- |
| O=C(Nc1ccc(/C=C/C(=O)N2CC3C=C(c4ccccc4)CC3C2)cn1)c1ccccc1 (centres unmarked) [compound 13] | 0.76 (≈ 1.75 µM) |
| Nc1ccc(/C=C/C(=O)N2CC3C=C(c4ccccc4)CC3C2)cn1 (centres unmarked) [compound 15] | 1.23 (≈ 3.71 µM) |
| O=C(Cc1ccncc1)Nc1ccc(/C=C/C(=O)N2CC3C=C(c4ccncc4)CC3C2)cn1 (centres unmarked) [compound 17] | 1.33 (≈ 2.95 µM) |

The remaining lines, values ahead:

| IC90 [µg/mL] | SMILES |
| --- | --- |
| 0.47 (≈ 1.07 µM) | Cc1occc1C(=O)Nc1ccc(/C=C/C(=O)N2CC3C=C(c4ccccc4)CC3C2)cn1 (centres unmarked) [compound 11] |
| 0.5 (≈ 1.15 µM) | O=C(Nc1ccc(/C=C/C(=O)N2CC3C=C(c4ccccc4)CC3C2)cn1)c1ccncc1 (centres unmarked) [compound 12] |
| 0.86 (≈ 1.91 µM) | O=C(Cc1ccncc1)Nc1ccc(/C=C/C(=O)N2CC3C=C(c4ccccc4)CC3C2)cn1 (centres unmarked) [compound 14] |
| 1.25 (≈ 2.75 µM) | Cc1cncc(C(=O)Nc2ccc(/C=C/C(=O)N3CC4C=C(c5ccnn5C)CC4C3)cn2)c1 (centres unmarked) [compound 16] |

molecular target: T1, S. aureus ATCC 29213 FabI (Staphylococcus aureus, UniProt Q6GI75); assay: Staphylococcus aureus FabI enzyme inhibition assay; type: biochemical; details: read-out: FabI (300.235) IC50 (converted)
T1 sequence (Q6GI75 1-256): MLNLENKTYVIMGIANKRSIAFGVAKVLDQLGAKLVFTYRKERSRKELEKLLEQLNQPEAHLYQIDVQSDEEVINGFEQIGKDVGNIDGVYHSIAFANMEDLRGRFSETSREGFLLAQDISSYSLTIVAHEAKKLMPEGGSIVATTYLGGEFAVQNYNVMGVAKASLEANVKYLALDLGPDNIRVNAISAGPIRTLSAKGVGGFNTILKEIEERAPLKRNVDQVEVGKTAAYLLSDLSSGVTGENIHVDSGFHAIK
Description: Y.1 FabI Enzyme Inhibition: Staphylococcus aureus FabI Enzyme Inhibition Assay
FabI enzyme inhibition assays were carried out in half-area, 384-well microtitre plates. Compounds were evaluated in 40-μl assay mixtures containing 100 mM NaADA, pH 6.5 (ADA=N-[2-acetamido]-2iminodiacetic acid), 250 μM crotonoyl-CoA, 625 μM NADH and 50 μg/ml S. aureus ATCC 29213 FabI. Inhibitors were typically varied over the range of 50 to 0.39 μM. The reaction mixtures were incubated for 30 minutes at room temperature and the reaction was stopped by adding 200 mM Tris buffer (pH 9.0) to create a pH-shift. The consumption of NADH was monitored by measuring the change in absorbance at […]. By comparing sample readings to those of negative (absence of compound) and positive (absence of enzyme) controls, the percent inhibition of enzymatic activity of the compounds was determined A best-fit curve is fitted by a minimum of squares method. From this an IC50-value (expressed in μg/ml), resulting in 50% inhibition of enzymatic activity, was obtained.

| SMILES | IC50 [µM] |
| --- | --- |
| O=C(Nc1ccc(/C=C/C(=O)N2CC3C=C(c4ccccc4)CC3C2)cn1)c1ccccc1 (centres unmarked) [compound 13] | 3.56 |
| Nc1ccc(/C=C/C(=O)N2CC3C=C(c4ccccc4)CC3C2)cn1 (centres unmarked) [compound 15] | 2.35 |
| O=C(Cc1ccncc1)Nc1ccc(/C=C/C(=O)N2CC3C=C(c4ccncc4)CC3C2)cn1 (centres unmarked) [compound 17] | 1.44 |

More lines, now with the values ahead:

| IC50 [µM] | SMILES |
| --- | --- |
| 3.23 | Cc1occc1C(=O)Nc1ccc(/C=C/C(=O)N2CC3C=C(c4ccccc4)CC3C2)cn1 (centres unmarked) [compound 11] |
| 2.04 | O=C(Nc1ccc(/C=C/C(=O)N2CC3C=C(c4ccccc4)CC3C2)cn1)c1ccncc1 (centres unmarked) [compound 12] |
| 1.73 | O=C(Cc1ccncc1)Nc1ccc(/C=C/C(=O)N2CC3C=C(c4ccccc4)CC3C2)cn1 (centres unmarked) [compound 14] |
| 1.32 | Cc1cncc(C(=O)Nc2ccc(/C=C/C(=O)N3CC4C=C(c5ccnn5C)CC4C3)cn2)c1 (centres unmarked) [compound 16] |

system: S. aureus; assay: Antibacterial susceptibility testing, IC90 determination with 10% human serum (STA + 10% HS); type: cell-based, Staphylococcus aureus; details: Staphylococcus aureus, human serum at final concentration of 10%, read-out: STA + 10% HS (361.169) IC90
Description: as §1, §2, §3
The results are depicted in the table(s) below (STA+10% HS).

| SMILES | IC90 [µg/mL] |
| --- | --- |
| O=C(Nc1ccc(/C=C/C(=O)N2CC3C=C(c4ccccc4)CC3C2)cn1)c1ccccc1 (centres unmarked) [compound 13] | 5.36 |
| Nc1ccc(/C=C/C(=O)N2CC3C=C(c4ccccc4)CC3C2)cn1 (centres unmarked) [compound 15] | 2.43 |
| O=C(Cc1ccncc1)Nc1ccc(/C=C/C(=O)N2CC3C=C(c4ccncc4)CC3C2)cn1 (centres unmarked) [compound 17] | 1.4 |

The remaining lines, values ahead:

| IC90 [µg/mL] | SMILES |
| --- | --- |
| 3.33 | Cc1occc1C(=O)Nc1ccc(/C=C/C(=O)N2CC3C=C(c4ccccc4)CC3C2)cn1 (centres unmarked) [compound 11] |
| 1.58 | O=C(Nc1ccc(/C=C/C(=O)N2CC3C=C(c4ccccc4)CC3C2)cn1)c1ccncc1 (centres unmarked) [compound 12] |
| 2.65 | O=C(Cc1ccncc1)Nc1ccc(/C=C/C(=O)N2CC3C=C(c4ccccc4)CC3C2)cn1 (centres unmarked) [compound 14] |
| 1.63 | Cc1cncc(C(=O)Nc2ccc(/C=C/C(=O)N3CC4C=C(c5ccnn5C)CC4C3)cn2)c1 (centres unmarked) [compound 16] |

system: not given; assay: not given; details: not given

| SMILES | melting point [°C] |
| --- | --- |
| O=C(Nc1ccc(/C=C/C(=O)N2CC3C=C(c4ccccc4)CC3C2)cn1)c1ccccc1 (centres unmarked) [compound 13] | 120 |
| Nc1ccc(/C=C/C(=O)N2CC3C=C(c4ccccc4)CC3C2)cn1 (centres unmarked) [compound 15] | 236 |
| O=C(Cc1ccncc1)Nc1ccc(/C=C/C(=O)N2CC3C=C(c4ccncc4)CC3C2)cn1 (centres unmarked) [compound 17] | > 250 |

Second part, the compound after the results:

| melting point [°C] | SMILES |
| --- | --- |
| 140 | Cc1occc1C(=O)Nc1ccc(/C=C/C(=O)N2CC3C=C(c4ccccc4)CC3C2)cn1 (centres unmarked) [compound 11] |
| 184 | O=C(Nc1ccc(/C=C/C(=O)N2CC3C=C(c4ccccc4)CC3C2)cn1)c1ccncc1 (centres unmarked) [compound 12] |
| 239.7 | O=C(Cc1ccncc1)Nc1ccc(/C=C/C(=O)N2CC3C=C(c4ccccc4)CC3C2)cn1 (centres unmarked) [compound 14] |
| 173.34 | Cc1cncc(C(=O)Nc2ccc(/C=C/C(=O)N3CC4C=C(c5ccnn5C)CC4C3)cn2)c1 (centres unmarked) [compound 16] |

system: not listed separately; assay: Cytotoxicity MTT assay (HELAM); type: cell-based, Human; details: human, HelaM cells, read-out: HELAM (222.125) CC50
Description: Cytotoxicity of the compounds was evaluated using the MTT assay. Human HelaM cells grown in 96-well plates were exposed to serial dilutions of the tested compounds (final volume of 0.2 ml) and incubated for 72 hours at 37° C. and 5% CO2. Inhibitors are typically varied over the range of 25 to 0.8 μM. The final DMSO concentration in the assay is 0.5%. MTT (3-(4,5-Dimethylthiazol-2-yl)-2,5-diphenyltetrazolium bromide, a tetrazole) was added and reduced to purple formazan only in living cells. Solubilization of the formazan crystals was achieved by adding 100 μl 2-propanol. Cell viability was determined by measuring the absorbance of the reduced formazan, giving a purple color, at 540 nm and 690 nm. The absorbance measured at 690 nm was automatically subtracted from the absorbance at 540 nm, to eliminate the effects of non-specific absorption. The percent cytotoxicity achieved by the compounds was calculated according to standard methods. Cytotoxicity is reported as CC50, the concentration that causes a 50% reduction in cell viability.
The results are depicted in the table(s) below (HELAM).

| SMILES | CC50 at 72 h [µg/mL] |
| --- | --- |
| Cc1occc1C(=O)Nc1ccc(/C=C/C(=O)N2CC3C=C(c4ccccc4)CC3C2)cn1 (centres unmarked) [compound 11] | 5.16 (≈ 11.7 µM) |
| O=C(Nc1ccc(/C=C/C(=O)N2CC3C=C(c4ccccc4)CC3C2)cn1)c1ccncc1 (centres unmarked) [compound 12] | > 11 |
| O=C(Nc1ccc(/C=C/C(=O)N2CC3C=C(c4ccccc4)CC3C2)cn1)c1ccccc1 (centres unmarked) [compound 13] | > 10.9 |
| O=C(Cc1ccncc1)Nc1ccc(/C=C/C(=O)N2CC3C=C(c4ccccc4)CC3C2)cn1 (centres unmarked) [compound 14] | > 11.3 |
| Nc1ccc(/C=C/C(=O)N2CC3C=C(c4ccccc4)CC3C2)cn1 (centres unmarked) [compound 15] | > 8.32 |
| Cc1cncc(C(=O)Nc2ccc(/C=C/C(=O)N3CC4C=C(c5ccnn5C)CC4C3)cn2)c1 (centres unmarked) [compound 16] | > 11.4 |
| O=C(Cc1ccncc1)Nc1ccc(/C=C/C(=O)N2CC3C=C(c4ccncc4)CC3C2)cn1 (centres unmarked) [compound 17] | > 4.51 |
